Assay results reported in US5439812A, “Antibodies catalyzing deamidation of proteins” (The Pennsylvania Research Corporation, priority 1992, dated 1995).
Counter-ions that a name gives are not always drawn. Square brackets hold non-standard residues; d marks the D form. Peptide text beside a SMILES is read from it. * marks the point of attachment. ξ: configuration not given here. NHPhenethyl = c1ccc(CCN*)cc1; ξN = NC(=O)CC(N)C(=O)O

Assays:
[1] = test system: monoclonal catalytic antibody 2E4 raised to the RG2 hapten-KLH conjugate; experiment: deamidation of the Asn-Gly substrate catalysed by antibody 2E4 (glutamate dehydrogenase coupled ammonia assay); type: biochemical, mouse
Text: (§1) The resulting hybridomas are subjected to a preliminary screening for binding to the hapten using standard methods specifically as described in U.S. Pat. No. 5,079,152 to Benkovic et al, noted above. […] This assay is chosen to specifically screen for those antibodies which catalyze the deamidation reaction and assays by the determination of ammonia. The procedure is a modification of known procedures which use glutamate dehydrogenase to detect ammonia. (See Foncesca-Wollheim, F. Clin. Chem., […], 1483-1487 (1990), and von Anken, H. D., Schiphorst, M. E., Clinica Chimica Acta, 56, 151-157 (1974)).
The deamidation to the cyclic imide intermediate is assayed by a spectrophotometric procedure coupling the antibody-catalyzed reaction to the enzyme glutamate dehydrogenase. Glutamate dehydrogenase utilizes the ammonia produced from the antibody-catalyzed deamidation reaction to convert alpha-ketoglutarate into glutamic acid, oxidizing nicotimamide dinucleotide phosphate in the process (NADPH is oxidized to NADP). The glutamate dehydrogenase reaction is monitored spectrophotometrically.
Thirty antibodies are picked for assay for catalytic activity. The antibodies are delivered in phosphate buffered saline solutions. These are then dialyzed into bicine buffer (pH 9.0, 0.10M) and 100 uL of the dialyzed solution was then added to a solution of bicine (166 uL, pH 9.0, 0.10M). To this is added 16.5 uL of a solution containing 400 uM NADPH, α-ketoglutarate, and adenosine diphosphate. This is mixed thoroughly and then 16.5 uL of analytical grade glutamate dehydrogenase (Boehringer Mannheim) is added and the solution is again mixed thoroughly. The reaction is initiated by addition of the substrate which is stored in a DMSO solution such that the total concentration of DMSO was 5%.
The solution is then transfered to a small cuvette and the decrease in absorbance at 340 nanometers is followed over a period of several hours. Control reactions are performed under identical conditions without the addition of antibody to the reaction mixture (bicine buffer was added in place of the antibody to maintain volume). The antibody catalyzed rate is determined by subtracting the overall rate (antibody-catalyzed and spontaneous rates) from the spontaneous rate determined from the control reaction.
This is not a Vmx since the substrate was not at total saturation of the antibody. The actual rate enhancement is probably greater. […]

[2] = test system: monoclonal catalytic antibody 24C3 raised to the RG2 hapten-KLH conjugate; experiment: deamidation of the Asn-Gly substrate catalysed by antibody 24C3 (glutamate dehydrogenase coupled ammonia assay); type: biochemical, mouse
Text: as §1
The deamidation to the cyclic imide intermediate is assayed by a spectrophotometric procedure coupling the antibody-catalyzed reaction to the enzyme glutamate dehydrogenase. […] The glutamate dehydrogenase reaction is monitored spectrophotometrically. […]
The solution is then transfered to a small cuvette and the decrease in absorbance at 340 nanometers is followed over a period of several hours. […] The antibody catalyzed rate is determined by subtracting the overall rate (antibody-catalyzed and spontaneous rates) from the spontaneous rate determined from the control reaction. […]

| Compound | inhibition of antibody-catalysed deamidation by hapten [1] | inhibition of antibody-catalysed deamidation by hapten [2] | kcat ([1]; 2E4 investigated in more detail) | Km ([1]; 2E4 investigated in more detail, read-out: binding affinity for the substrate (Km)) | kcat ([1]; 25° C., bicine pH 9.0, substrate 451 uM, antibody 27.4 uM, not a Vmax, substrate not at total saturation) | kcat ([2]; not a true Vmax) |
| --- | --- | --- | --- | --- | --- | --- |
| O=C(O)CCCC(=O)NC1CP(=O)(O)C(CC(=O)NCCc2ccccc2)C1O (stereo not drawn) [phospholane hapten, N-(Z-Phenylethyl)-[1'-hydroxyphosphol-3'-hydroxy-4'-(5-hydroxy-5-oxo-pentanoyl)amino-1'-oxo-2'-yl]acetamide disodium salt] | stoichiometrically inhibited | inhibition of this reaction with hapten | – | – | – | – |
| CC(=O)NC(CC(N)=O)C(=O)NCC(=O)NCCc1ccccc1 (stereo not drawn) [substrate, phenyl ethyl derivative of the asparaginyl-glycyl dipeptide] (Ac-[ξN]-Gly-NHPhenethyl) | – | – | 1.5±0.3×10^-4 s^-1 | 220 ± 10 µM | 0.416 h⁻¹ | 0.352 |
